The values below come from patent US20050256103A1, “Indole derivative having piperidine ring” (Eisai Co., Ltd., priority 2004, published 2005).

Like-named read-outs stand apart in the source and are kept apart here.

The target of one assay is T1, serotonin 1A receptor (Mus musculus, UniProt Q64264).
T1 construct: into the rectum of CD-1 (ICR) male mice (25-45 g); from tissue; host or cells: living CD-1 (ICR) male mice (in vivo)
T1 sequence (Q64264 1-421): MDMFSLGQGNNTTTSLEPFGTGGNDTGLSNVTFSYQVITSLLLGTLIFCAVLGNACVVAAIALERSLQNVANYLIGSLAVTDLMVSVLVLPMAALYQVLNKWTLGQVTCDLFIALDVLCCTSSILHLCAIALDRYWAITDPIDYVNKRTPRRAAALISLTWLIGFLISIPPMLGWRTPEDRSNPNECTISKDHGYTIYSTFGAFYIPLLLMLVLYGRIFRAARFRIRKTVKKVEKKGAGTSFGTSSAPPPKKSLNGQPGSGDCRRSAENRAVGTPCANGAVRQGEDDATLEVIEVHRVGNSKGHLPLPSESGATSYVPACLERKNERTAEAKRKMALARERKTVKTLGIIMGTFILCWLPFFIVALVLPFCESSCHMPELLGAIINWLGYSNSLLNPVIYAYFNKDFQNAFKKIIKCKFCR
Put plainly: Antagonistic effect on serotonin 1A receptor agonist (8-OH-DPAT)-induced hypothermia in mouse. The assay is classed as in vivo. Conditions: for ED50: CD-1 (ICR) male mice, inhibition of hypothermia by 8-OH-DPAT 0.5 mg/kg sc, test substance 15 minutes before agonist. In a few lines: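 CD-1 (ICR) male mice, 25-45 g; rectal temperature by thermistor probe at about 2 cm depth. Test substance given 15 min before s.c. 8-OH-DPAT […]; antagonism scored as inhibition of the induced hypothermia.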

Assay [1] has as its system urinary reflex of Sprague-Dawley female rats. Put plainly: Inhibitory action against accentuated urinary reflex of rat due to destruction of the superior colliculus (cystometrogram). The assay is classed as in vivo. Particulars: iv, rat with superior colliculus lesion. The text has this:
(1) In the present test, Sprague-Dawley female rates (200-350 g) were used. The rats were subjected to median incision of the abdomen under anesthesia. Thereafter, a hole with a minor diameter was made on the head portion of the bladder, and a catheter used for measurement of an intravesical pressure was placed therein. A catheter used for administration of a test substance was placed in the femoral vein. These catheters were fixed at the occipital region of the rat through the subcutis. One day later, the urinary reflex of the rats was measured with a cystometrogram. Thereafter, the rats were fixed on a brain stereotaxis apparatus under anesthesia, and then subjected to median incision of the scalp. […] Thereafter, electric current was applied (65° C., 4 minutes), so as to damage the brain tissues. After completion of the operation, when the rat awakened from anesthesia, cystometrogram was conducted again to confirm the enhanced state of urinary reflex. A test substance was administered through the catheter placed in the femoral vein, and the action of the test substance to the urinary reflex was evaluated. In addition, the effects of several test substances were compared using the maximal reaction (Emax).

The target of the next assay is T2, 5-HT1A receptor (Sus scrofa, UniProt A0A4X1UTF5).
T2 construct: Swine hippocampus was homogenized in a 50 mM Tris-Hcl buffer; from tissue; host or cells: swine hippocampus, membrane fraction
T2 sequence (A0A4X1UTF5 1-422): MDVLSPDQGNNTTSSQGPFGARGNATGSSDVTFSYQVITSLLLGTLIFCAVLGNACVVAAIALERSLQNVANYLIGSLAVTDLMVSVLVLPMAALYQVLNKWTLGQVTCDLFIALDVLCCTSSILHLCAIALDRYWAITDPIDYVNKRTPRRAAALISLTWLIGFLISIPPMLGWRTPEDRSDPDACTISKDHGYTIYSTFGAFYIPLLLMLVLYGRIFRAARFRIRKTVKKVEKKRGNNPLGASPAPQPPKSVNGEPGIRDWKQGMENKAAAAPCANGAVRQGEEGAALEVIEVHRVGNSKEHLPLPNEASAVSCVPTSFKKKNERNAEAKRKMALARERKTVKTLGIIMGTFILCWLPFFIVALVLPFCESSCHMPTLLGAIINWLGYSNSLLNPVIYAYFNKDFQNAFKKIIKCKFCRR
Put plainly: Affinity for serotonin 1A receptor: inhibition of [3H]MPPF binding in swine hippocampal membrane fraction. Conditions: for IC50: [3H]MPPF 0.5 nM, swine hippocampal membrane, 37°C 30 min; for L/H ratio: low affinity IC50 divided by high affinity IC50, 1 or smaller = no intrinsic activity, 2 or greater = intrinsic activity. In a few lines:
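Swine hippocampal membranes incubated 30 min at 37 °C with 0.5 nM [3H]MPPF and test compound in 50 mM Tris-HCl pH 7.4, 1% DMSO, with 10 mM MgCl2 (G-protein-coupled, high-affinity state) or 1 mM Gpp(NH)p (uncoupled, low-affinity state). Bound radioactivity measured by filtration and scintillation counting; nonspecific binding defined with 10 μM WAY-100,635. IC50 in each state; low/high IC50 ratio taken as an estimate of intrinsic activity.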

Setting [2] is: receptor in high affinity (G-protein binding, MgCl2 10 mM) state, read-out: High affinity IC50.
Where [3] appears, read: receptor in low affinity (G-protein non-binding, Gpp(NH)p 1 mM) state, read-out: Low affinity IC50.

As usually defined, the IC50 is the concentration that inhibits the measured activity by half. Consider `COc1ccc2nc(C)oc2c1CCN1CCC(n2ccc3ccc(C(N)=O)cc32)CC1` [Compound 3, 1-{1-[2-(6-methoxy-2-methylbenzoxazol-7-yl)ethyl]piperidin-4-yl}-1H-indole-6-carboxamide], for which the ED50 at serotonin 1A receptor was 0.18 mg/kg, sc. Besides, the “Bladder capacity Emax” value in assay [1] (dose 0.03 mg/kg) was found to be 62%. For the same molecule, the IC50 at 5-HT1A receptor (setting [2]) turned out to be 0.46 nM; at 5-HT1A receptor (setting [3]), 0.34 nM. Also, the L/H ratio on 5-HT1A receptor is 0.7.
As for `NC(=O)c1ccc2ccn(C3CCN(CCc4ccc(F)cc4)CC3)c2c1` [Compound A, reference compound], at serotonin 1A receptor, the ED50 is >1 mg/kg, sc. In addition, the “antagonistic effect against the receptor” value at serotonin 1A receptor (result in words) is listed as “weak”. Also, the “Bladder capacity Emax” value in assay [1] (dose 0.01 mg/kg) is listed as −36%. In addition, the concentration for half-maximal inhibition (IC50) at 5-HT1A receptor (setting [2]) was 0.1 nM; at 5-HT1A receptor (read-out: Low affinity IC50, receptor in low affinity (G-protein non-binding, Gpp(NH)p 1 mM) state), 0.5 nM. The L/H ratio at 5-HT1A receptor turned out to be 3.7. For the same molecule, the “affinity for 5-HT1A” value at 5-HT1A receptor (result in words) is listed as “has affinity”.
Turning to `COc1cc2oc(C)nc2cc1CCN1CCC(n2ccc3ccc(C(N)=O)cc32)CC1` [Compound 4, 1-{1-[2-(6-methoxy-2-methylbenzoxazol-5-yl)ethyl]piperidin-4-yl}-1H-indole-6-carboxamide], the ED50 at serotonin 1A receptor was 0.1 mg/kg, sc. The “Bladder capacity Emax” value in assay [1] (dose 0.03 mg/kg) was 107%. The IC50 on 5-HT1A receptor (setting [2]) is 0.17 nM; at 5-HT1A receptor (setting [3]) it was 0.15 nM. Moreover, the L/H ratio on 5-HT1A receptor is on record as 0.9.
As to `COc1cc2ccccc2cc1CCN1CCC(n2ccc3ccc(C(N)=O)cc32)CC1` [Compound 45, 1-{1-[2-(3-methoxynaphthalen-2-yl)ethyl]piperidin-4-yl}-1H-indole-6-carboxamide], the ED50 at serotonin 1A receptor is listed as 0.26 mg/kg, sc. Further, the IC50 was 0.58 nM on 5-HT1A receptor (setting [2]) and 0.69 nM at 5-HT1A receptor (setting [3]). Further, on 5-HT1A receptor, the L/H ratio is given as 1.2.
With `COc1ccc2c(=O)ccoc2c1CCN1CCC(n2ccc3ccc(C(N)=O)cc32)CC1` [Compound 35, 1-{1-[2-(7-methoxy-4-oxo-4H-chromen-8-yl)ethyl]piperidin-4-yl}-1H-indole-6-carboxamide], at serotonin 1A receptor, the ED50 is 0.2 mg/kg, sc. For the same molecule, the 50% inhibitory concentration (IC50) came out at 0.27 nM on 5-HT1A receptor (setting [2]) and 0.23 nM on 5-HT1A receptor (setting [3]). The L/H ratio on 5-HT1A receptor is 0.9.
Regarding `COc1ccc2ncccc2c1CCN1CCC(n2ccc3ccc(C(N)=O)cc32)CC1` [Compound 30, 1-{1-[2-(6-methoxyquinolin-5-yl)ethyl]piperidin-4-yl}-1H-indole-6-carboxamide], the ED50 on serotonin 1A receptor was 0.62 mg/kg, sc. Also, the IC50 at 5-HT1A receptor (setting [2]) turned out to be 0.2 nM; on 5-HT1A receptor (setting [3]), 0.19 nM. The L/H ratio on 5-HT1A receptor turned out to be 1.
For `CNC(=O)c1ccc2ccn(C3CCN(CCc4cc5c(cc4OC)CCN(C)C5=O)CC3)c2c1` [Compound 38, 1-{1-[2-(6-methoxy-2-methyl-1-oxo-1,2,3,4-tetrahydroisoquinolin-7-yl)ethyl]piperidin-4-yl}-N-methyl-1H-indole-6-carboxamide], the ED50 at serotonin 1A receptor is 0.19 mg/kg, sc. Further, the IC50 on 5-HT1A receptor (setting [2]) amounted to 0.2 nM; on 5-HT1A receptor (setting [3]) it was 0.13 nM. Further, the L/H ratio on 5-HT1A receptor is 0.7.
Take `COc1cc2c(cc1CCN1CCC(n3ccc4ccc(C(N)=O)cc43)CC1)C(=O)CC(C)(C)O2` [Compound 24, 1-{1-[2-(7-methoxy-2,2-dimethyl-4-oxochroman-6-yl)ethyl]piperidin-4-yl}-1H-indole-6-carboxamide]: the ED50 on serotonin 1A receptor is listed as 0.3 mg/kg, sc. The concentration for half-maximal inhibition (IC50) at 5-HT1A receptor (setting [2]) amounted to 0.22 nM; on 5-HT1A receptor (setting [3]), 0.17 nM. The L/H ratio at 5-HT1A receptor is given as 0.8.
Consider `CNC(=O)c1ccc2ccn(C3CCN(CCc4cc5c(cc4OC)CCC(=O)N5C)CC3)c2c1` [Compound 58, 1-{1-[2-(6-methoxy-1-methyl-2-oxo-1,2,3,4-tetrahydroquinolin-7-yl)ethyl]piperidin-4-yl}-N-methyl-1H-indole-6-carboxamide], for which the ED50 on serotonin 1A receptor is listed as 0.53 mg/kg, sc. Also, the IC50 amounted to 0.33 nM on 5-HT1A receptor (setting [2]) and 0.39 nM at 5-HT1A receptor (setting [3]). Also, at 5-HT1A receptor, the L/H ratio is listed as 1.2.
With `CNC(=O)c1ccc2ccn(C3CCN(CCc4c(OC)ccc5c4OC(C)(C)CC5O)CC3)c2c1` (stereo not drawn) [Compound 48, 1-{1-[2-(4-hydroxy-7-methoxy-2,2-dimethylchroman-8-yl)ethyl]piperidin-4-yl}-N-methyl-1H-indole-6-carboxamide], at serotonin 1A receptor, the ED50 is given as 0.06 mg/kg, sc. Moreover, the IC50 on 5-HT1A receptor (setting [2]) amounted to 1.2 nM; at 5-HT1A receptor (setting [3]) it was 1.1 nM. Also, the L/H ratio at 5-HT1A receptor is on record as 0.9.
